US20230218663A1, “COMPOSITIONS AND METHODS FOR TREATING A SARS-COV-2 INFECTION” (priority 2020, published 2023)

Test system: SARS-CoV-2
Test: Viral load reduction assay in VeroE6 cells
Type: cell-based
Procedure: Viral load reduction assay was performed on VeroE6 and Caco2 cells, as described previously with modifications^41. Supernatant samples from the infected cells (0.1 MOI) were harvested at 48 hours post-infection (hpi) for qRT-PCR analysis of virus replication. Briefly, 100 μL of viral supernatant were lyzed with 400 μL of AVL buffer and then extracted for total RNA with the QIAamp viral RNA mini kit (Qiagen, Hilden, Germany). Real-time one-step qRT-PCR was used for quantitation of SARS-CoV-2 viral load using the QuantiNova Probe RT-PCR kit (Qiagen) with a LightCycler 480 Real-Time PCR System (Roche) as previously described^15. Each […] mixture contained 10 μL of 2×QuantiNova Probe RT-PCR Master Mix, 1.2 μL of RNase-free water, 0.2 μL of QuantiNova Probe RT-Mix, 1.6 μL each of 10 μM forward and reverse primer, 0.4 μL of 10 μM probe, and 5 μL of extracted RNA as the template. Reactions were incubated at 45° C. for 10 min for reverse transcription, 95° C. for 5 min for denaturation, followed by 45 cycles of 95° C. for 5 s and 55° C. for 30 s. Signal detection and measurement were taken in each cycle after the annealing step. The cycling profile ended with a cooling step at 40° C. for 30 s. The primers and probe sequences are against the RNA-dependent RNA polymerase/Helicase (RdRP/Hel) gene region of SARS-Cov-2 previously described^42.
Cell culture supernatants were collected at 48 hour-post-infection (hpi) for viral RNA extraction and quantitative reverse transcription-polymerase chain reaction (qRT-PCR) as previously described with modifications(13, 14). The primers and probe sequences were against the RNA-dependent RNA polymerase/Helicase (RdRP/Hel) gene region of SARS-CoV-2: forward primer: 5′-[…]-3′ (SEQ ID NO:6); reverse primer: 5′-[…]-3′(SEQ ID NO:7); specific probe: 5′-[…]-IABkFQ-3′(SEQ ID NO:8). The viral load reduction assay experiments were performed in triplicate and repeated twice for confirmation.

Colloidal Bismuth Subcitrate [De-Nol]
maximal viral load reduction in VeroE6 cell culture supernatant: ~4 logs
maximal viral load reduction in the VeroE6 cell lysate: ~2 logs
